Assays:
Assay type in all cases: cell-based
[1] = tested on: P388 (ATCC CCL-46, suspension culture of a lymphoid neoplasm from DBA/2 mouse); experiment: In vitro antitumor screening, growth inhibition of P388 cells
Excerpt: (§1) Its antitumor activity has been detected in vitro by culturing the tumor cells following the methodology described by
(§2) (1): Raymond I. Bergeron, Paul F. Cavanaugh, Jr., Steven J. Mine, Robert G. Hughes, Jr., Gary T. Elliot and Carl W. Porter. Antineoplastic and antiherpetic activity of spermidine catecholamide iron chelators. Biochem. Bioph. Res. Comm. 1984, 121(3): 848-854; and
(§3) (2). Alan C. Schroeder, Robert G. Hughes, Jr. and Alexander Bloch. Effects of Acycic Pyrimidine Nucleoside Analoges. J. Med. Chem. 1981, 24:1078-1083.
(§4) Cells were maintained in logarithmic phase of growth in Eagle's Minimum Essential Medium, with Earle's Balanced Salts, with 2.0 mM L-glutamine, with non-essential amino acids, without sodium bicarbonate (EMEM/neaa); supplemented with 10% Fetal Calf Serum (FCS), 10^−2 M sodium bicarbonate and 0.1 g/l penicillin-G +streptomycin sulfate.
A screening procedure has been carried out to determine and compare the antitumor activity of citreamicin CL, using an adapted form of the method described by Bergeron et al. The antitumor cells employed were P388 (ATCC CCL-46, suspension culture of a lymphoid neoplasm from DBA/2 mouse), A549 (ATCC CCL-185, monolayer culture of a human lung carcinoma) and HT-29 (ATCC HTB-38, monolayer culture of a human colon carcinoma). […]

[2] = tested on: A549 (ATCC CCL-185, monolayer culture of a human lung carcinoma); experiment: In vitro antitumor screening, growth inhibition of A549 cells (Crystal Violet); details: approximate IC50; three days of incubation at 37° C.; Crystal Violet staining; duplicate
Excerpt: as §1, §2, §3
as §4, with “sulfate. […]” for “sulfate.”
(§5) A549 and HT-29 cells were seeded into 16 mm wells at 2×10^4 cells per well in 1 ml aliquots of MEM 1OFCS containing the indicated concentration of drug. […] An approximate IC50 was determined by comparing the growth in wells with drug to the growth in wells control.

[3] = tested on: HT-29 (ATCC HTB-38, monolayer culture of a human colon carcinoma); experiment: In vitro antitumor screening, growth inhibition of HT-29 cells (Crystal Violet); details: approximate IC50; three days of incubation at 37° C.; Crystal Violet staining; duplicate
Excerpt: as §1, §2, §3
as §4, with “sulfate. […]” for “sulfate.”
as §5

IC50 ([1]; approximate IC50, three days of incubation at 37° C., growth in wells with drug vs control wells, duplicate): 3 nM | IC50 [2]: 4 nM | IC50 [3]: 4 nM
SMILES: COc1cc2oc3c(c(=O)c2cc1OC)C(=O)c1c(ccc2cc4c(c(O)c12)C(=O)N1C(C)(C4)OC(=O)C1(C)COC(=O)CC(C)C)C3=O (stereo not drawn) [Citreamicin α, citreamicin α]
in vitro antitumor activity ([1]; cell line derived from mouse lymphoma): exhibits in vitro antitumor activity
